Experimental data reported in PubChem BioAssay AID1918933 (Molecular Pharmacology Branch, DTP, NCI, 2023).

Tested on: 186277-243-T-J2-PDC complex spheroid viability
Test: Anticancer human tumor 186277-243-T-J2-PDC patient-derived colon adenocarcinoma cell line growth inhibition
Conditions: for IC50: curve of first compound; for viability, T/C: stronger effect = lower value
Method in brief: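 Complex spheroids of tumor cells with HUVEC and human MSCs, exposed to iadademstat combined with other agents. Each agent tested in half-log steps from near clinical Cmax (else 10 microM top), DMSO ≤0.25%.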

[1] = second compound 0.1 µM, first compound 0.0316 µM
[2] = second compound 0.1 µM, first compound 0.1 µM
[3] = second compound 0.1 µM, first compound 0.316 µM
[4] = second compound 0.1 µM, first compound 1 µM
[5] = second compound 0.1 µM, first compound 3.16 µM
[6] = second compound 0.1 µM, first compound 10 µM
[7] = second compound 0.316 µM, first compound 0.0316 µM
[8] = second compound 0.316 µM, first compound 0.1 µM
[9] = second compound 0.316 µM, first compound 0.316 µM
[10] = second compound 0.316 µM, first compound 1 µM
[11] = second compound 0.316 µM, first compound 3.16 µM
[12] = second compound 0.316 µM, first compound 10 µM
[13] = second compound 1 µM, first compound 0.0316 µM
[14] = second compound 1 µM, first compound 0.1 µM
[15] = second compound 1 µM, first compound 0.316 µM
[16] = second compound 1 µM, first compound 1 µM
[17] = second compound 1 µM, first compound 3.16 µM
[18] = second compound 1 µM, first compound 10 µM
[19] = second compound 3.16 µM, first compound 0.0316 µM
[20] = second compound 3.16 µM, first compound 0.1 µM
[21] = second compound 3.16 µM, first compound 0.316 µM
[22] = second compound 3.16 µM, first compound 1 µM
[23] = second compound 3.16 µM, first compound 3.16 µM
[24] = second compound 3.16 µM, first compound 10 µM
[25] = second compound 10 µM, first compound 0.0316 µM
[26] = second compound 10 µM, first compound 0.1 µM
[27] = second compound 10 µM, first compound 0.316 µM
[28] = second compound 10 µM, first compound 1 µM
[29] = second compound 10 µM, first compound 3.16 µM
[30] = second compound 10 µM, first compound 10 µM
[31] = second compound 0.1 µM, first compound 0.00316 µM
[32] = second compound 0.1 µM, first compound 0.01 µM
[33] = second compound 0.316 µM, first compound 0.00316 µM
[34] = second compound 0.316 µM, first compound 0.01 µM
[35] = second compound 1 µM, first compound 0.00316 µM
[36] = second compound 1 µM, first compound 0.01 µM
[37] = second compound 3.16 µM, first compound 0.00316 µM
[38] = second compound 3.16 µM, first compound 0.01 µM
[39] = second compound 10 µM, first compound 0.00316 µM
[40] = second compound 10 µM, first compound 0.01 µM
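Further: 7 day exposure to compounds.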
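Wherever viability, T/C is given: 100% = DMSO vehicle control viability.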

Work on CC(C)c1c(-c2ccccc2)nc2c(C#N)c[nH]n2c1=O + NC1CC1c1ccc(-c2cccc(O)c2)cc1 yielded an IC50 (second compound 0.1 µM) of over 10 µM, an IC50 (second compound 0.316 µM) of over 10 µM and an IC50 (second compound 1 µM) of over 10 µM. The IC50 (second compound 3.16 µM) was over 10 µM, the IC50 (second compound 10 µM) was over 10 µM and the viability, T/C [1] was 114%. For the same molecule, the viability, T/C [2] was 101%, the viability, T/C [3] was 106% and the viability, T/C [4] was 85.4%. For the same molecule, the viability, T/C [5] was 88.1%, the viability, T/C [6] was 72.5% and the viability, T/C [7] was 95.9%. For the same molecule, the viability, T/C [8] was 107%, the viability, T/C [9] was 104% and the viability, T/C [10] was 100%. For the same molecule, the viability, T/C [11] was 85.9%, the viability, T/C [12] was 78.5% and the viability, T/C [13] was 106%. For the same molecule, the viability, T/C [14] was 99.8%, the viability, T/C [15] was 93% and the viability, T/C [16] was 96.2%. It also gave a viability, T/C [17] of 95.4%, a viability, T/C [18] of 73.7% and a viability, T/C [19] of 101%. It also gave a viability, T/C [20] of 106%, a viability, T/C [21] of 111% and a viability, T/C [22] of 108%. It also gave a viability, T/C [23] of 96.9%, a viability, T/C [24] of 80.9% and a viability, T/C [25] of 88.9%. The viability, T/C [26] was 86%, the viability, T/C [27] was 102% and the viability, T/C [28] was 97.6%. For the same molecule, the viability, T/C [29] was 85% and the viability, T/C [30] was 74.6%.
COc1ccc([C@@H](O)c2cc(-c3ncnc4cc(N5CCOCC5)ccc34)c(F)cc2Cl)nn1 + NC1CC1c1ccc(-c2cccc(O)c2)cc1 was tested, and the IC50 (second compound 0.1 µM) was 5.37 µM, the IC50 (second compound 0.316 µM) was 4.68 µM and the IC50 (second compound 1 µM) was 4.39 µM. The IC50 (second compound 3.16 µM) was 4.41 µM, the IC50 (second compound 10 µM) was 3.73 µM and the viability, T/C [1] was 105%. For the same molecule, the viability, T/C [2] was 109%, the viability, T/C [3] was 112% and the viability, T/C [4] was 96.3%. It also gave a viability, T/C [5] of 81.8%, a viability, T/C [6] of 14% and a viability, T/C [7] of 109%. For the same molecule, the viability, T/C [8] was 108%, the viability, T/C [9] was 110% and the viability, T/C [10] was 89.1%. It also gave a viability, T/C [11] of 70.8%, a viability, T/C [12] of 12.8% and a viability, T/C [13] of 107%. The viability, T/C [14] was 113%, the viability, T/C [15] was 114% and the viability, T/C [16] was 80.9%. It also gave a viability, T/C [17] of 68.7%, a viability, T/C [18] of 12.9% and a viability, T/C [19] of 110%. The viability, T/C [20] was 118%, the viability, T/C [21] was 97.1% and the viability, T/C [22] was 102%. For the same molecule, the viability, T/C [23] was 64.7%, the viability, T/C [24] was 11.7% and the viability, T/C [25] was 97.7%. For the same molecule, the viability, T/C [26] was 103%, the viability, T/C [27] was 106% and the viability, T/C [28] was 91.3%. It also gave a viability, T/C [29] of 57.8% and a viability, T/C [30] of 5.72%.
Work on CC[C@@]1(O)C(=O)OCc2c1cc1n(c2=O)Cc2cc3c(CN(C)C)c(O)ccc3nc2-1 + NC1CCC(NC2CC2c2ccccc2)CC1 yielded an IC50 (second compound 0.1 µM) of over 0.1 µM, an IC50 (second compound 0.316 µM) of over 0.1 µM and an IC50 (second compound 1 µM) of over 0.1 µM. It also gave an IC50 (second compound 3.16 µM) of over 0.1 µM, an IC50 (second compound 10 µM) of over 0.1 µM and a viability, T/C (second compound 0.1 µM, first compound 0.000316 µM) of 106%. The viability, T/C (second compound 0.1 µM, first compound 0.001 µM) was 99.1%, the viability, T/C [31] was 137% and the viability, T/C [32] was 131%. The viability, T/C [1] was 102%, the viability, T/C [2] was 51.8% and the viability, T/C (second compound 0.316 µM, first compound 0.000316 µM) was 111%. The viability, T/C (second compound 0.316 µM, first compound 0.001 µM) was 108%, the viability, T/C [33] was 131% and the viability, T/C [34] was 132%. It also gave a viability, T/C [7] of 98.6%, a viability, T/C [8] of 52.8% and a viability, T/C (second compound 1 µM, first compound 0.000316 µM) of 107%. For the same molecule, the viability, T/C (second compound 1 µM, first compound 0.001 µM) was 114%, the viability, T/C [35] was 137% and the viability, T/C [36] was 131%. It also gave a viability, T/C [13] of 103%, a viability, T/C [14] of 56.9% and a viability, T/C (second compound 3.16 µM, first compound 0.000316 µM) of 107%. It also gave a viability, T/C (second compound 3.16 µM, first compound 0.001 µM) of 124%, a viability, T/C [37] of 147% and a viability, T/C [38] of 134%. For the same molecule, the viability, T/C [19] was 104%, the viability, T/C [20] was 61.6% and the viability, T/C (second compound 10 µM, first compound 0.000316 µM) was 104%. For the same molecule, the viability, T/C (second compound 10 µM, first compound 0.001 µM) was 116%, the viability, T/C [39] was 140% and the viability, T/C [40] was 131%. For the same molecule, the viability, T/C [25] was 110% and the viability, T/C [26] was 63.2%.
For COc1cc(C2c3cc4c(cc3C(OC3OC5COC(C)OC5C(O)C3O)C3COC(=O)C23)OCO4)cc(OC)c1O (stereo not given) + NC1CCC(NC2CC2c2ccccc2)CC1, the IC50 (second compound 0.1 µM) was 2.71 µM, the IC50 (second compound 0.316 µM) was 2.75 µM and the IC50 (second compound 1 µM) was over 3 µM. It also gave an IC50 (second compound 3.16 µM) of over 3 µM, an IC50 (second compound 10 µM) of over 3 µM and a viability, T/C (second compound 0.1 µM, first compound 0.00949 µM) of 93%. It also gave a viability, T/C (second compound 0.1 µM, first compound 0.03 µM) of 125%, a viability, T/C (second compound 0.1 µM, first compound 0.0949 µM) of 144% and a viability, T/C (second compound 0.1 µM, first compound 0.3 µM) of 98.6%. It also gave a viability, T/C (second compound 0.1 µM, first compound 0.949 µM) of 74.2%, a viability, T/C (second compound 0.1 µM, first compound 3 µM) of 46.9% and a viability, T/C (second compound 0.316 µM, first compound 0.00949 µM) of 120%. It also gave a viability, T/C (second compound 0.316 µM, first compound 0.03 µM) of 121%, a viability, T/C (second compound 0.316 µM, first compound 0.0949 µM) of 150% and a viability, T/C (second compound 0.316 µM, first compound 0.3 µM) of 98.7%. It also gave a viability, T/C (second compound 0.316 µM, first compound 0.949 µM) of 72.9%, a viability, T/C (second compound 0.316 µM, first compound 3 µM) of 46.1% and a viability, T/C (second compound 1 µM, first compound 0.00949 µM) of 109%. For the same molecule, the viability, T/C (second compound 1 µM, first compound 0.03 µM) was 111%, the viability, T/C (second compound 1 µM, first compound 0.0949 µM) was 150% and the viability, T/C (second compound 1 µM, first compound 0.3 µM) was 99.5%. The viability, T/C (second compound 1 µM, first compound 0.949 µM) was 71.4%, the viability, T/C (second compound 1 µM, first compound 3 µM) was 49.2% and the viability, T/C (second compound 3.16 µM, first compound 0.00949 µM) was 111%. The viability, T/C (second compound 3.16 µM, first compound 0.03 µM) was 111%, the viability, T/C (second compound 3.16 µM, first compound 0.0949 µM) was 155% and the viability, T/C (second compound 3.16 µM, first compound 0.3 µM) was 104%. It also gave a viability, T/C (second compound 3.16 µM, first compound 0.949 µM) of 77.6%, a viability, T/C (second compound 3.16 µM, first compound 3 µM) of 52.3% and a viability, T/C (second compound 10 µM, first compound 0.00949 µM) of 113%. It also gave a viability, T/C (second compound 10 µM, first compound 0.03 µM) of 111%, a viability, T/C (second compound 10 µM, first compound 0.0949 µM) of 150% and a viability, T/C (second compound 10 µM, first compound 0.3 µM) of 109%. For the same molecule, the viability, T/C (second compound 10 µM, first compound 0.949 µM) was 81.5% and the viability, T/C (second compound 10 µM, first compound 3 µM) was 57.4%.
In the case of Nc1ncn(C2CC(O)C(CO)O2)c(=O)n1 (stereo not given) + NC1CCC(NC2CC2c2ccccc2)CC1, the IC50 (second compound 0.1 µM) is reported as over 1 µM, the IC50 (second compound 0.316 µM) is reported as over 1 µM and the IC50 (second compound 1 µM) is reported as over 1 µM. It also gave an IC50 (second compound 3.16 µM) of over 1 µM, an IC50 (second compound 10 µM) of over 1 µM and a viability, T/C [31] of 97.6%. The viability, T/C [32] was 110%, the viability, T/C [1] was 98.2% and the viability, T/C [2] was 129%. It also gave a viability, T/C [3] of 139%, a viability, T/C [4] of 142% and a viability, T/C [33] of 95.9%. For the same molecule, the viability, T/C [34] was 111%, the viability, T/C [7] was 107% and the viability, T/C [8] was 127%. It also gave a viability, T/C [9] of 141%, a viability, T/C [10] of 138% and a viability, T/C [35] of 102%. The viability, T/C [36] was 119%, the viability, T/C [13] was 111% and the viability, T/C [14] was 130%. It also gave a viability, T/C [15] of 127%, a viability, T/C [16] of 135% and a viability, T/C [37] of 101%. For the same molecule, the viability, T/C [38] was 108%, the viability, T/C [19] was 112% and the viability, T/C [20] was 137%. The viability, T/C [21] was 151%, the viability, T/C [22] was 138% and the viability, T/C [39] was 113%. For the same molecule, the viability, T/C [40] was 105%, the viability, T/C [25] was 116% and the viability, T/C [26] was 140%. It also gave a viability, T/C [27] of 140% and a viability, T/C [28] of 132%.
